The record followed here is patent publication US20100036088A1, “Selective poly-N-substituted glycine antibiotics” (priority 2008, published 2010).

For orientation: IC50 means the point on the concentration scale where inhibition reaches its midpoint. Low values mean higher potency, high ones lower potency.

Data set [1] in a line: MTS assay, metabolic inhibition. The format is cell-based, mouse. Here is the method: (§1) The potencies of all compounds were determined against representative Gram-negative (E. coli ATCC 35218) and Gram-positive (B. subtilis ATCC 6633) biosafety level 1 (BSL1) organisms. In addition to hemolytic activity, the conventional measure of toxicity to mammalian cells, the effect of each ampetoid on NIH 3T3 mouse fibroblast cells was determined using the MTS tetrazolium salt-based calorimetric assay. While hemolysis measures the degree to which erythrocytes are lysed, the MTS assay indirectly quantifies the extent to which cellular metabolic activity is inhibited.
MTS assays. NIH/3T3 cells (ATCC Corporation) cultured at 37° C. and 5% CO2 in complete Dulbecco's modified eagle's media (CDMEM) supplemented with 1% sodium pyruvate, 1% penicillin-streptomycin, 1.5 g/L NaHCO3, and 10% fetal bovine serum. Cells were seeded at a density of 5,000 cells per well for NIH/3T3 cells in 96-well plates (100 μl total volume). A peptoid solution plate (100 μL total volume per well) was prepared by serial dilution of aqueous peptoid stock solution in Hank's balanced salt solution (HBSS) media. The day-old cell monolayers were washed with HBSS and media was replaced with 100 μL HBSS. The contents of the peptoid solution plate were transferred onto corresponding wells of the cell monolayer plate, and 40 μL MTS reagent (Promega, Inc.) was added to each well. After incubating for 3 hours at 37° C., absorbance at 490 nm was determined. […] The average of six replicates is reported.

Another data set concerns E. coli (ATCC 35218). Format: cell-based. As to conditions: ATCC 35218. The protocol: (§2) Whereas the preceding generation of molecules was designed to elucidate structure function relationships of specific molecular parameters (chirality, length, hydrophobicity, etc.), another generation compounds were designed explicitly to explore effects on selectivity. Antimicrobial activity of these compounds was tested against bacterial strains E. coli (ATTC 35218) and B. subtilis (ATTC 6633) in cation-adjusted MHB using the microdilution protocols previously described. The sequences, antimicrobial activities, hemolytic activities, and metabolic inhibitory concentrations against NIH 3T3 mouse fibroblast cells are summarized in Table 3 and the rationale of their design is described below.
as §1
(§3) Screening antibacterial assays. MICs were determined in 96-well microtiter plates in accordance with CLSI M7-A6 protocols. Peptoid solutions with 50 μL total volume were prepared using 2:1 serial dilutions. 50 μL of bacteria inoculum (1×10^6 CFU/mL) prepared in cation-adjusted Mueller-Hinton broth (CAMHB) was added to test wells. Control wells contained 100 μL MHB (no growth) or 50 μL inoculums with 50 μL MHB with no peptoid. […] Reported values were reproducible over three experiments, each containing two parallel trials.

A further data set concerns B. subtilis (ATCC 6633). The format is cell-based. The following applies: ATCC 6633. Here is the method: as §2, §1, §3
The next data set has as its system human erythrocytes. Description: Hemolysis assay. Format: cell-based. Here is the method: Hemolysis assays. Erythrocytes were isolated from freshly drawn, heparanized human blood and resuspended to 20 vol % in PBS (pH 7.4). In a 96-well microtiter plate, 100 μL erythrocyte suspension was added to 100 μL peptoid solution in PBS (prepared by 1:2 serial dilutions), or 100 μL PBS in the case of negative controls. 100% hemolysis wells contained 100 μL blood cell suspension with 100 μL 0.2 vol % Triton X-100. The plate was incubated for 1 h at 37° C., then each well was diluted with 150 μL PBS. The plate was then centrifuged at 1200 g for 15 min, 100 μL of the supernatant from each well transferred to a fresh microtiter plate, and A350 measured.
Hemolysis assays. Erythrocytes were isolated from freshly drawn, heparanized human blood and resuspended in PBS (pH 7.4) to make a 20% volume suspension. Peptoid solutions were prepared by serial dilution (2:1) in a 96-well microtiter plate. For test wells, 100 μL of erythrocyte suspension was added to 100 μL of peptoid solution in PBS; PBS without peptoid was used as the negative control and 0.2 vol % Triton X-100 as the positive control that indicates 100% hemolysis. After 1 hour incubation at 37° C., each well was diluted with 150 μL PBS. Plates were then centrifuged at 1,200×g for 15 minutes to pellet the cells. 30 μL of the supernatant from each well were transferred to the corresponding well of a second 96-well plate that contains 70 μL PBS.

The mark [2] stands for this setting: Table 6, NIH 3T3 mouse fibroblast cells.

Read-outs that look alike come from different tables or passages of the source. Square brackets hold non-standard residues; d marks the D form. Peptide text beside a SMILES is read from it. Nrpe = C[C@@H](NCC(=O)O)c1ccccc1; Nspe = C[C@H](NCC(=O)O)c1ccccc1; Nlys = NCCCCNCC(=O)O

`C[C@H](c1ccccc1)N(CC(N)=O)C(=O)CN(C(=O)CN(CCCCN)C(=O)CN(C(=O)CN(C(=O)CN(CCCCN)C(=O)CN(C(=O)CN(C(=O)CN(CCCCN)C(=O)CN(C(=O)CN(C(=O)CNCCCCN)[C@@H](C)c1ccccc1)[C@H](C)c1ccccc1)[C@@H](C)c1ccccc1)[C@H](C)c1ccccc1)[C@@H](C)c1ccccc1)[C@H](C)c1ccccc1)[C@@H](C)c1ccccc1` [1-Nrpe3,6,9,12, H-(Nlys-Nspe-Nrpe)4-NH2] registered an IC50 in data set [1] (setting [2]) of 3.8 µM. Also, in the data set with E. coli (ATCC 35218) (Table 6), the “E. coli MIC” value is 6.3 µM. For the same compound, in the data set with B. subtilis (ATCC 6633) (Table 6), the “B. subtilis MIC” value is 1.6 µM. In the data set on human erythrocytes (Table 6), this compound had an HD10 of 16 µM and an HD50 of 67 µM.
`C[C@@H](c1ccccc1)N(CC(N)=O)C(=O)CN(C(=O)CN(CCCCN)C(=O)[C@@H]1CCCN1C(=O)CN(C(=O)CN(CCCCN)C(=O)CN(C(=O)CN(C(=O)CN(CCCCN)C(=O)[C@@H]1CCCN1C(=O)CN(C(=O)CNCCCCN)[C@@H](C)c1ccccc1)[C@@H](C)c1ccccc1)[C@@H](C)c1ccccc1)[C@@H](C)c1ccccc1)[C@@H](C)c1ccccc1` [1-Pro3,9, H-(Nlys-Nspe-L-Pro-Nlys-Nspe-Nspe)2-NH2] (H-[Nlys][Nspe]P[Nlys][Nspe][Nspe][Nlys][Nspe]P[Nlys][Nspe][Nspe]-NH2) yielded an IC50 in data set [1] of 71 µM. Further, the “E. coli MIC” value in the data set on E. coli (ATCC 35218) is 50 µM. The “B. subtilis MIC” value with B. subtilis (ATCC 6633) came out at 1.6 µM. Moreover, in the data set on human erythrocytes, the HD10 is on record as >200/>200 μM and the HD50 is reported as >200/>200 μM.
For the compound `C[C@H](NCC(=O)N(CCCCN)CC(=O)N(CC(=O)N(CCCCN)CC(=O)N(CCCCN)CC(=O)N(CC(=O)N(CC(=O)N(CCCCN)CC(=O)N(CC(=O)N(CCCCN)CC(=O)N(CCCCN)CC(=O)N(CC(=O)N(CC(=O)N(CCCCN)CC(=O)N(CC(N)=O)[C@@H](C)c1ccccc1)[C@@H](C)c1ccccc1)[C@@H](C)c1ccccc1)[C@@H](C)c1ccccc1)[C@@H](C)c1ccccc1)[C@@H](C)c1ccccc1)[C@@H](C)c1ccccc1)c1ccccc1` [1B15mer-Nlys4,10, H-(Nspe-Nlys-Nspe-Nlys-Nlys-Nspe)2-Nspe-Nlys-Nspe-NH2] (H-[Nspe][Nlys][Nspe][Nlys][Nlys][Nspe][Nspe][Nlys][Nspe][Nlys][Nlys][Nspe][Nspe][Nlys][Nspe]-NH2), 16 µM corresponded to half-maximal inhibition in data set [1] (IC50). Further, the “E. coli MIC” value in the data set with E. coli (ATCC 35218) worked out at 50 µM. In the data set with B. subtilis (ATCC 6633), the “B. subtilis MIC” value turned out to be 0.78 µM. In addition, in the data set on human erythrocytes, the HD10 is on record as >200/>200 μM and the HD50 is >200/>200 μM.
The compound `C[C@@H](c1ccccc1)N(CC(N)=O)C(=O)CN(C(=O)CN(CCCCN)C(=O)CN(C(=O)CN(C(=O)CN(CCCCN)C(=O)CN(C(=O)CN(C(=O)CN(CCCCN)C(=O)[C@@H]1CCCN1C(=O)CN(C(=O)CNCCCCN)[C@@H](C)c1ccccc1)[C@@H](C)c1ccccc1)[C@@H](C)c1ccccc1)[C@@H](C)c1ccccc1)[C@@H](C)c1ccccc1)[C@@H](C)c1ccccc1` [1-Pro3, H-Nlys-Nspe-L-Pro-(Nlys-Nspe-Nspe)3-NH2] (H-[Nlys][Nspe]P[Nlys][Nspe][Nspe][Nlys][Nspe][Nspe][Nlys][Nspe][Nspe]-NH2) displayed an IC50 in data set [1] of 12 µM. Also, the “E. coli MIC” value in the data set on E. coli (ATCC 35218) was found to be 12.5 µM. Moreover, the “B. subtilis MIC” value in the data set on B. subtilis (ATCC 6633) is 1.6 µM. Further, in the data set with human erythrocytes, the HD10 is 74 µM and the HD50 is > 200 µM.
Consider `C[C@H](c1ccccc1)N(CC(=O)N(CC(N)=O)[C@@H](C)c1ccccc1)C(=O)CN(CCCCN)C(=O)CN(C(=O)CN(C(=O)CN(CCCCN)C(=O)CN(C(=O)CN(C(=O)CN(CCCCN)C(=O)CN(C(=O)CN(C(=O)CNCCCCN)[C@H](C)c1ccccc1)[C@@H](C)c1ccccc1)[C@H](C)c1ccccc1)[C@@H](C)c1ccccc1)[C@H](C)c1ccccc1)[C@@H](C)c1ccccc1` [1-Nrpe2,5,8,11, H-(Nlys-Nrpe-Nspe)4-NH2] (H-[Nlys][Nrpe][Nspe][Nlys][Nrpe][Nspe][Nlys][Nrpe][Nspe][Nlys][Nrpe][Nspe]-NH2), for which the IC50 in data set [1] (setting [2]) stood at 5.2 µM. Besides, the “E. coli MIC” value in the data set on E. coli (ATCC 35218) (Table 6) stood at 6.3 µM. Moreover, in the data set with B. subtilis (ATCC 6633) (Table 6), the “B. subtilis MIC” value was 1.6 µM. In addition, in the data set on human erythrocytes (Table 6), the HD10 turned out to be 22 µM and the HD50 came out at 95 µM.
For the compound `C[C@@H](c1ccccc1)N(CC(N)=O)C(=O)CN(C(=O)CN(CCCCN)C(=O)CN(Cc1ccccc1)C(=O)CN(Cc1ccccc1)C(=O)CN(CCCCN)C(=O)CN(C(=O)CN(C(=O)CN(CCCCN)C(=O)CN(Cc1ccccc1)C(=O)CN(Cc1ccccc1)C(=O)CNCCCCN)[C@@H](C)c1ccccc1)[C@@H](C)c1ccccc1)[C@@H](C)c1ccccc1` [1-Npm2,3,8,9, H-(Nlys-Npm-Npm-Nlys-Nspe-Nspe)2-NH2], in data set [1], the IC50 worked out at 15 µM. The “E. coli MIC” value with E. coli (ATCC 35218) came to 6.3 µM. The “B. subtilis MIC” value with B. subtilis (ATCC 6633) was found to be 1.6 µM. Further, in the data set on human erythrocytes, the HD50 was > 200 µM.
`C[C@H](c1ccccc1)N(CC(=O)N(CCCCN)CC(=O)N(CC(=O)N(CC(=O)N(CCCCN)CC(=O)N(CC(=O)N(CC(=O)N(CCCCN)CC(=O)N(CC(=O)N(CC(N)=O)[C@@H](C)c1ccccc1)[C@@H](C)c1ccccc1)[C@@H](C)c1ccccc1)[C@@H](C)c1ccccc1)[C@H](C)c1ccccc1)[C@H](C)c1ccccc1)C(=O)CN(C(=O)CNCCCCN)[C@H](C)c1ccccc1` [1-Nrpe2,3,5,6, H-(Nlys-Nrpe-Nrpe)2-(Nlys-Nspe-Nspe)2-NH2] (H-[Nlys][Nrpe][Nrpe][Nlys][Nrpe][Nrpe][Nlys][Nspe][Nspe][Nlys][Nspe][Nspe]-NH2) displayed an IC50 in data set [1] (setting [2]) of 4.8 µM. Moreover, in the data set with E. coli (ATCC 35218) (Table 6), the “E. coli MIC” value worked out at 6.3 µM. Further, in the data set on B. subtilis (ATCC 6633) (Table 6), the “B. subtilis MIC” value was determined as 0.78 µM. In the data set with human erythrocytes (Table 6), this compound returned an HD10 of 25 µM and an HD50 of 96 µM.
